{"source": "paper PMC6882468", "about": "(Journal of Enzyme Inhibition and Medicinal Chemistry, 2019)", "key": {"[1]": {"tested_on": "DNFB-induced mouse model of allergic contact dermatitis", "assay": "DNFB-induced mouse model of allergic contact dermatitis (ear swelling)", "assay_type": "in vivo, Male ICR mice", "protocol": "Male ICR mice (20 ± 2 g) were obtained from the Experimental Animal Centre of Anhui Medical University (Hefei, China). The mice reared in a pathogen-free setting (23 ± 2 °C, 55 ± 5% humidity) with free access to water and pelleted food throughout the experimental cycle. All experimental procedures performed in accordance with guide for the Care and Use of Laboratory Animals (National Research Council, 1996) and were approved by the Experimental Animal Ethics Committee of Anhui University of Chinese Medicine (Hefei, China). After 7 days acclimatisation, the mice were randomly divided into control group, ACD model group, dexamethasone positive control group and 20 compound groups, six in each group. The control group and the model group were given the same dose of the vehicle, the positive control group was given dexamethasone 0.5 mg/kg, and the test compound groups were given compound 5 mg/kg, all of which were given by intragastric administration and were administered once a day for 6 days. Except for the control group, the 50 µL of 1% DNFB (in acetone/olive oil 4:1) was administered to the stripped epidermis, and repeated the next day. After 6 days of drug treatment, 10 µL of 1% DNFB acetone olive oil solution was applied on both sides of the right ear to stimulate inflammation, and equivalent acetone olive oil solution was applied on the left ear for comparison. […] Calculation was carried out according to the following equations. Swelling degree (mg) = MR – ML Inhibitory rate of ear swelling (%)=((MR – ML) model – (MR – ML) treated)/(MR – ML) model ×100% MR=Average weight of the right ear slices;ML= Average weight of the left ear slices […] Dexamethasone (DEX) at a p.o. dose of 0.5 mg/kg was employed as the positive control. After the mice were sacrificed, the swelling degree and inhibition rate were calculated by weighing the same part of both ears."}, "[2]": {"tested_on": "COX-2 expression in RAW264.7 cells", "assay": "Western blot of LPS-induced COX-2 expression", "assay_type": "cell-based, Murine", "details": "RAW264.7, LPS 200 ng/mL 24 h", "protocol": "(§1) The cell in 96-well plates were treated as described above and then stimulated with LPS (200 ng/mL) for 24 h. The cells were harvested and lysed in an extraction lysis buffer (Beyotime Biotechnology, Shanghai, China) containing protease inhibitors. The protein concentration was determined using a BCA protein assay kit (Thermo Scientific, 23227). The whole cell lysates were separated by 10% sodium dodecyl sulphate-polyacrylamide gel electrophoresis and transferred to a nitrocellulose membrane. Each membrane was incubated with Tris-buffered saline (pH 7.6, containing 0.05% Tween-20 and 5% non-fat milk). The nitrocellulose membrane was incubated with the primary antibody against p-JNK1/2, JNK1/2, p-p38, p38, p-ERK1/2, ERK1/2, IκBa, NF-κB p65, COX-2, iNOS or β-Actin (Abcam, Cambridge, UK). Immunoreactive bands were detected by incubating with horseradish peroxidase-conjugated secondary antibodies, and visualised using enhanced chemiluminescence reagents (Bio-Rad, Hercules, CA).\nFigure 6. […] Cell viability was evaluated using the MTT assay. NO production was measured using nitrite and nitrate assay. iNOS and COX-2 expression were detected by Western blot. (A) Cell viability assay; (B) Quantitative analysis of NO productions; (C) Quantitative analysis of iNOS expressions, (D) Quantitative analysis of COX-2 expressions. β-actin was used as loading control."}, "[3]": {"tested_on": "NF-κB activation in RAW264.7 cells", "assay": "Western blot of LPS-induced NF-κB activation", "assay_type": "cell-based, Murine", "details": "RAW264.7, 2-h pre-treatment before LPS stimulation", "protocol": "as §1\nFigure 5. Compound 6n inhibited LPS-induced NF-κB activation in RAW264.7 cells. […] The levels of NF-κB p65, IκB, and their phosphorylated forms were analysed using western blot."}, "[4]": {"tested_on": "JNK phosphorylation in RAW264.7 cells", "assay": "Western blot of LPS-induced JNK phosphorylation", "assay_type": "cell-based, Murine", "details": "RAW264.7, 5, 10, 20 μM, LPS 200 ng/mL", "protocol": "as §1\nFigure 7. Compound 6n inhibited LPS-induced MAPK-signalling activation in RAW264.7 cells. RAW264.7 cells were co-incubated with 6n (5, 10, 20 μM) and LPS (200 ng/mL) for 30 min. The levels of p38, JNK, ERK1/2 and their phosphorylated forms were analysed using western blot."}, "COX-2": {"target": "T1, COX-2 (Homo sapiens, UniProt P35354)", "T1 sequence (P35354 18-604)": "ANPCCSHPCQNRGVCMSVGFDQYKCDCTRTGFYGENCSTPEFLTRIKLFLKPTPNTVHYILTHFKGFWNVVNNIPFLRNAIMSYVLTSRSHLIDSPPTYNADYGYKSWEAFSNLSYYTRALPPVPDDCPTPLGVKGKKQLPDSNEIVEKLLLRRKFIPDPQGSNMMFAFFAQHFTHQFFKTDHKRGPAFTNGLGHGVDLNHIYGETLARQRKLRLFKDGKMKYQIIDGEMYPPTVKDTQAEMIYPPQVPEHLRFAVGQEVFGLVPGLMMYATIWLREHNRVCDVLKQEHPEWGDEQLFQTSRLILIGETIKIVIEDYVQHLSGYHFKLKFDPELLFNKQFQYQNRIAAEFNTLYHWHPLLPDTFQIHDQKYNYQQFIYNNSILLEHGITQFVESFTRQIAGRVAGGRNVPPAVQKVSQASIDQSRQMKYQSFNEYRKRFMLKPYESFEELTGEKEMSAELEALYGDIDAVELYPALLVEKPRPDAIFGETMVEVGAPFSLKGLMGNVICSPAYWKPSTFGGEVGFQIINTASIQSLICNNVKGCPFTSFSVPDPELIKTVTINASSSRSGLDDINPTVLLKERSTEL", "assay": "COX-2 inhibition assay in vitro (COX Inhibitor Screening Kit, fluorometric)", "procedure": "Simply, different concentrations of the test compound solution were added to the mixed solution containing COX-1/COX-2 enzyme (10 µL) and Assay Buffer (960 µL, 0.1 M Tris-HCl pH 8.0 containing 5 µM EDTA and 2 µM phenol). […] The IC50 values were calculated as described above."}}}
{"smiles": "COc1ccccc1CN1CCN(C(=O)c2ccccc2C(C)=O)CC1", "note": "[Compound 6n, 1–(2-(4–(2-Methoxybenzyl)piperazine-1-carbonyl)phenyl)ethan-1-one]", "values": [{"measurement": "Swelling degree", "setting": "[1]; mice, 5 mg/kg intragastric once a day for 6 days, ear slices weighed 24 h after DNFB challenge, Mean ± SD, n = 6", "result": "8.8 ± 3.2", "unit": "mg"}, {"measurement": "Inhibition (%) of ear swelling", "setting": "[1]; mice, 5 mg/kg intragastric once a day for 6 days, vs model group", "result": 46.3, "unit": "%"}, {"measurement": "in vivo inhibitory activity, in words", "setting": "[1]; p.o. 5 mg/kg, p < 0.01", "result": "significant inhibitory activity"}, {"measurement": "LPS-induced expression of COX-2", "setting": "[2]", "result": "dose-dependent decrease"}, {"measurement": "LPS-induced IκB phosphorylation", "setting": "[3]", "result": "markedly decreased"}, {"measurement": "accumulation of NF-κB p65 subunit in the nucleus", "setting": "[3]", "result": "lowered"}, {"measurement": "cytosolic IκB", "setting": "[3]", "result": "increased"}, {"measurement": "phosphorylation of JNK", "setting": "[4]", "result": "no obvious effect"}, {"measurement": "IC50", "setting": "COX-2", "result": "36 ± 4", "unit": "nM"}, {"measurement": "SI (COX-1/COX-2)", "setting": "COX-2; IC50 (COX-1)/IC50 (COX-2)", "result": 349.72}]}
